Results reported in patent US7135182B2, “Inhibition of transglutaminase-mediated microbial interaction with a mammalian host” (priority 1998, dated 2006).

Columns and labels:
[1] = system: adhesion of C. albicans germ tubes (UnoPP-1) to human buccal epithelial cells (BECs); assay: Stabilized (covalent) adhesion of radiolabeled C. albicans germ tubes to human buccal epithelial cells; format: cell-based, Candida albicans
Procedure: Mass conversion of yeasts, radiolabeled with Tran^35S-label (ICN) (5 μCi/ml), to germ tubes (5×10^6/ml) was induced in prewarmed M199 (40 ml) for 2.5 hours at 37° C. No differences in the proportion of (>95%) germ tubes or in germ tube length were seen among strains. Washed germ tubes and BECs from a healthy donor, suspended in 300 μl of reaction buffer 3 (50 mM Tris-Cl pH 7.5, 10 mM CaCl2, 1 mM EDTA, 1 mM DTT), at a germ tube/BEC ratio of 100:1, were mixed, incubated for 1 hour at 37° C. followed by reaction termination with 100 mM EGTA (75 μl). The BEC donors understood the nature of the studies and consented to provide BECs. Radioactivity of BEC fractions was determined by scintillation counting after centrifugation on 50% Percoll gradients, and germ tubes per BEC was determined using the specific activity of each strain. Background counts, determined from gradients with germ tubes only, were less than 6% of counts for germ tube/BEC mixtures and were subtracted from counts of epithelial cell-germ tube mixtures. […]
Radiolabeled germ tubes of the control strain, UnoPP-1, were incubated with BECs at a ratio of 100:1 with or without 5 or 10 mM monodansylcadaverine in reaction buffer 3, supra. […] The cell mixtures were incubated for 1 hour at 37° C., and the number of germ tubes covalently attached to BECs were determined. […]

[2] = target: T1, guinea pig liver transglutaminase (UniProt P08587); assay: Fluorescence assay of transglutaminase-catalyzed cross-linking of 5-(biotinamido)pentylamine to C. albicans germ tube surfaces; format: biochemical; conditions: C. albicans SC5314 germ tubes; EGTA 20 mM (FIG. 2B)
T1 construct: guinea pig liver transglutaminase (8.5 μg); from tissue; host or cells: guinea pig liver
Procedure: To detect germ tube surface proteins serving as glutamine donors in transglutaminase-catalyzed cross-linking reactions, a fluorescence assay using a biotinylated lysine analogue as the primary amine acceptor and liver transglutaminase was developed.
Washed M199-germinated C. albicans cells (10^8/ml), guinea pig liver transglutaminase (8.5 μg), and 5-(biotinamido)pentylamine (30 μM) (Pierce) were incubated in reaction buffer 1 (400 μl) (100 mM Tris-Cl pH 7.5, 5 mM CaCl2, 1 mM DTT, 2 mM EDTA) for 15 minutes at 37° C. Reactions were stopped with EDTA (10 mM), germ tubes were washed with distilled water, spotted onto microscope slides, air dried, incubated with avidin-FITC (1:100) (Zymed) and BSA-rhodamine (1:30) (Difco) in PBS at 37° C., washed and examined by fluorescence microscopy.

T1 sequence (P08587 whole entry): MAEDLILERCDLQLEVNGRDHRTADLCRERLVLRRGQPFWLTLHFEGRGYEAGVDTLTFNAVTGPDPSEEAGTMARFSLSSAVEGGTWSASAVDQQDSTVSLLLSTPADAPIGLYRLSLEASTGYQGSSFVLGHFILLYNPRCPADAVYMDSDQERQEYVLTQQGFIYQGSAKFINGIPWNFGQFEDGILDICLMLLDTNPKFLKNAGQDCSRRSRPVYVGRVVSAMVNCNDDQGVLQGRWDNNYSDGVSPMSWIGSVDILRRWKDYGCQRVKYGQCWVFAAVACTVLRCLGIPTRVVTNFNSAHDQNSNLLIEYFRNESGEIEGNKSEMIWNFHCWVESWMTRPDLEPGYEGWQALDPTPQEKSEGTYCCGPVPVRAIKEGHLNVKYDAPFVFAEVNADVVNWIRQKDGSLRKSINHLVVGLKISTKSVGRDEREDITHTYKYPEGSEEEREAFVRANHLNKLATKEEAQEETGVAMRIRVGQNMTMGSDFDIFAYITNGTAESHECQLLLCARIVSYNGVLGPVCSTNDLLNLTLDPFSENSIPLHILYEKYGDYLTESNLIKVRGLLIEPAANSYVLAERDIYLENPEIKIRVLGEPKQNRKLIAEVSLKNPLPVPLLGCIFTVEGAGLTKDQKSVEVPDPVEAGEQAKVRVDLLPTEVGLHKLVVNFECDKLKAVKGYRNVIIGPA

SMILES | stabilized adhesion of UnoPP-1 to BECs with transglutaminase inhibited ([1]; iodoacetamide 10 mM, BECs pretreated 15 minutes, CAH7-1A was 23% of UnoPP-1) | effect on transglutaminase-mediated fluorescence labelling of germ tubes [2] | reduction of adhesion of germ tubes to BEC relative to DMSO control ([1]; 5 or 10 mM, UnoPP-1 germ tubes/BEC 100:1, 1 hour at 37° C., covalently attached germ tubes)
NC(=O)CI [iodoacetamide] | low level of stabilized adhesion of CAH7-1A was equivalent to that of UnoPP-1 | inhibited | –
CN(C)c1cccc2c(S(=O)(=O)NCCCCCN)cccc12 [monodansylcadaverine] | – | – | approximately 87%
O=C(O)CN(CCOCCOCCN(CC(=O)O)CC(=O)O)CC(=O)O [EGTA] | – | inhibited | –
